For 18 compounds, TGI, GI50 and outcome results are on record in PubChem BioAssay (NCI).

Converted amounts (≈) assume the structure as drawn. “And” between values parts separate entries of the source, which are not always exact repeats. Identical values can stand only once.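 Following 48 hours of exposure in 96-well plates, responses at five concentrations were used to interpolate endpoints linearly. Abbreviation: GI50, concentration required for 50% inhibition of growth. Definition used: TGI = concentration required for complete inhibition of growth.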 The source made the active and inactive calls. Rule as the data show it: active = GI50 below about 0.43 µM; inactive = the rest. Some results are limits rather than exact numbers.

What all share (experiment): NCI tumour cell line growth inhibition, 48 h
In experiment [1] the test system is DLD-1 colon.
For experiment [2], the system named is M19-MEL melanoma.
In experiment [3] the test system is RXF-631 renal.
Experiment [4] deals with HOP-18 NSCLC.
In experiment [5] the test system is SN12K1 renal.
Experiment [6] has as its system P388/ADR leukemia.
For experiment [7], the system named is P388 leukemia.

Take `O=C(Nc1c(Cl)cc([N+](=O)[O-])cc1Cl)/C(=N\Nc1cccc(Cl)c1)c1c(O)c2ccccc2oc1=O`: the TGI in experiment [1], in experiment [2] and in experiment [3] was above 100 µM throughout.

As to `CCOC(=O)/C=C/c1ccccn1`, the TGI in experiment [1], in experiment [2], in experiment [3] and in experiment [4] was above 100 µM in each case.

In the case of `CCN(CC)CCOc1ccc(C(=C2CCCCC2)c2ccc(OCCN(CC)CC)cc2)cc1`, the TGI came to 4.52 µM in experiment [1], 3.08 µM in experiment [2], 2.82 µM in experiment [3] and 8.01 µM in experiment [4].

For the compound `CC1OC(OC2CC(O)(C(=O)CO)Cc3c(O)c4c(c(O)c32)C(=O)c2ccccc2C4=O)CC(N)C1O` (stereo not given), the TGI in experiment [2] was 0.15 µM; in experiment [3], 0.213 µM; in experiment [4], 0.0358 µM.

Regarding `Cc1ccc(C2=C(c3ccccc3)C(O)(c3ccc(C)cc3)C(c3ccccc3)=C2c2ccc(C)cc2)cc1`, the TGI in experiment [1] and in experiment [2] was above 100 µM throughout.

Consider `CC(=O)NC(CCCCNC(=O)N(C)N=O)C(=O)NCc1ccccc1` (stereo not given), for which the TGI in experiment [1], in experiment [2] and in experiment [3] was above 100 µM each time.

`NC(N)=Nc1nc2ccccc2[nH]1`: the GI50 in experiment [5] is 37.6 µg/mL (≈ 215 µM); in experiment [1], 54.4 µg/mL; in experiment [2] it was 20.3 µg/mL; in experiment [6], 6.34 µg/mL (≈ 36.2 µM); in experiment [7] it was 4.46 µg/mL (≈ 25.4 µM). The TGI in experiment [5] was above 150 µg/mL; in experiment [1], above 150 µg/mL; in experiment [2], 51 µg/mL; in experiment [6] it was 41.5 µg/mL; in experiment [7], 20.5 µg/mL. For the same compound, the result in experiment [4] was inactive.

As to `O=c1[nH]c(=O)n(C2CC(O)C(CO)O2)cc1C#Cc1cc(F)cc(F)c1` (stereo not given), the TGI in experiment [1] is above 100 µM; in experiment [2], above 100 µM; in experiment [3], above 100 µM; in experiment [4], 83.2 µM.

Compound `COC(=O)C(Cc1nc2ccccc2[nH]c1=O)C(=O)C(=O)Nc1ccc(OC)cc1[N+](=O)[O-]` (stereo not given) gave a TGI in experiment [2] above 100 µM.

As for `O=C(CSc1nnc(-c2ccc(N=Cc3ccc(Cl)cc3)cc2)o1)Nc1cccc(Cl)c1`, the TGI in experiment [2] and in experiment [4] was above 100 µM throughout.

Consider `S=C(Nc1ccccc1)N1N=C2c3ccccc3CC[C@H]2[C@@H]1c1ccccc1`, for which the TGI in experiment [1], in experiment [2] and in experiment [4] was above 100 µM in each case.

Consider `COc1cc([C@@H]2c3cc4c(c(O)c3C[C@H]3COC(=O)[C@@H]32)OCO4)cc(OC)c1O`, for which the GI50 in experiment [1] is 4.21 nM and 20 nM; in experiment [2] it was 4.61 nM. Also, the TGI is above 200 µM in experiment [1], above 200 µM in experiment [2], 992 nM in experiment [6] and 1900 nM in experiment [7].

For `CSc1ccc2c(cc1=O)[C@@H](NC(=O)c1ccc(F)cc1)CCc1cc(O)c(O)c(O)c1-2`, the TGI in experiment [1], in experiment [2], in experiment [3] and in experiment [4] was above 100 µM each time.

In the case of `Cc1cc(NCCCCCCNc2cc(C)nc3ccc(Cl)cc23)c2cc(Cl)ccc2n1`, the TGI in experiment [1] is 30.8 µM; in experiment [2], 43.4 µM; in experiment [3], above 100 µM.

In the case of `COc1cc(C=O)c(-c2cc3c(cc2C=O)OCO3)c(OC)c1OC`, the TGI in experiment [1], in experiment [2], in experiment [3] and in experiment [4] was above 290 µM in each case.

In the case of `C/C(=N/N)c1ccc2[nH]c3c(C)cc([N+](=O)[O-])c(C)c3c2c1`, the TGI in experiment [2] turned out to be 27.1 µM; in experiment [4] it was 24 µM.

Turning to `COc1cc2c(cc1O)C(C)Cc1cc3c(cc1N(C)CC2)OCO3` (stereo not given), the TGI in experiment [1] was 42.7 µM; in experiment [2], above 40.8 µM; in experiment [3] it was above 59 µM; in experiment [4], 90.9 µM.

Turning to `O=C(c1ccccc1)c1c(CNCc2ccccc2)n(C(=O)c2ccccc2)c2ccccc12`, the TGI in experiment [1] and in experiment [2] was above 100 µM in each case.
